From ChEMBL document CHEMBL1201862, “PubChem BioAssay data set” (2004) come the findings set out here.

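Step 1: Grow cells in 96-well plates. Step 2: Expose to compound for 48 hours at 5 concentrations. Step 3: Interpolate endpoints linearly; if unreached, use highest concentration. The concentration for 50% growth inhibition is given as GI50.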 Calls of active or inactive are those of the source. Cut-off read from the data, not from the text of the source: active = GI50 up to about 1.1 µM and inactive = higher.

Among the test systems are M19-MEL; RXF 631; DLD-1; SNB-78; XF498; DMS-114; DMS-273; BT-549; HOP-18.
Common to all, as to assay: inhibition of tumour cell growth, NCI panel, 48 h

With `CCCC(S(=O)(=O)c1ccccc1)S(=O)(=O)c1ccccc1`, the GI50 with M19-MEL, in the assay with RXF 631, in the assay on DLD-1, in the assay on SNB-78, in the assay on XF498 and in the assay with DMS-114 was > 100 µM (inactive) in each case. For the same compound, the GI50 in the assay on DMS-273 is > 100 µM (inactive).
For `COC(=O)n1c(=O)n(-c2ccccc2)c(=O)n1C(=O)OC`, the GI50 in the assay on BT-549 is > 100 µM (inactive).
Regarding `CN(C)c1ncc(-c2c[nH]c3ccccc23)nc1-c1c[nH]c2ccccc12`, in the assay with BT-549, the GI50 is 13.8 µM (inactive).
On to `C[N+](C)(C)CC(=O)N/N=C(/C=C/c1ccccc1)CC1OC(=O)c2ccccc21` (stereo unspecified), for which the GI50 in the assay on M19-MEL, in the assay on DLD-1, in the assay with SNB-78, in the assay on XF498, in the assay on DMS-114 and in the assay on HOP-18 was > 100 µM (inactive) in each case. For the same compound, the GI50 with DMS-273 was > 100 µM (inactive).
Regarding `C[Si](C)(c1ccccc1)C1CC(=O)CC(=O)C1`, the GI50 in the assay on M19-MEL, in the assay on DLD-1, in the assay on SNB-78, with XF498, in the assay with DMS-114 and with HOP-18 was > 100 µM (inactive) each time. In addition, the GI50 in the assay with DMS-273 was > 100 µM (inactive).
Consider `O=C1c2cccc(O)c2C(=O)c2c(OC3OC(CO)C(O)C(O)C3O)cccc21` (stereo unspecified), for which the GI50 in the assay on BT-549 was 21.8 µM (inactive).
On the same count and under the same terms, the result for `Nc1nc(Cl)cc(NCC2(CO)CC(CCCc3ccccc3)C2)n1` (stereo unspecified) reads > 100 µM (inactive).
The same measure, in the same setting: for `CC(=O)Oc1ccc(/C=C/C(=O)O[C@@H](C(=O)O)[C@@H](OC(=O)/C=C/c2ccc(OC(C)=O)c(OC(C)=O)c2)C(=O)O)cc1OC(C)=O` the value was > 100 µM (inactive); for `CC(=O)N1C(Nc2nccs2)CCN1c1ccccc1` (stereo unspecified), > 10 µM (inactive); for `Cc1cc(C)c2nccc(NCCCN(C)C)c2c1[N+](=O)[O-]`, 35.5 µM (inactive).
Same read-out and setting: the result for `Cc1ccc(NC(=O)c2cc(S(=O)(=O)Nc3n[nH]c(=O)n3-c3ccccc3)c(S)cc2Cl)cc1` reads > 100 µM (inactive).
Regarding `O=[N+]([O-])c1cccc(S(=O)(=O)N/N=C/c2cc(I)cc([N+](=O)[O-])c2O)c1`, the GI50 in the assay on M19-MEL was 34.8 µM (inactive); in the assay with DLD-1, 42.5 µM (inactive); with SNB-78, 22 µM (inactive); with DMS-114, 21.6 µM (inactive); in the assay with HOP-18, 29.6 µM (inactive); in the assay on DMS-273, 25.6 µM (inactive).
In the case of `S=c1[nH]n2c(CCCCCCCCc3nnc4sc(=S)[nH]n34)nnc2s1`, in the assay on BT-549, the GI50 was > 100 µM (inactive).
As for `O=[N+]([O-])c1nccn1CCCNCCCn1ccnc1[N+](=O)[O-]`, in the assay with BT-549, the GI50 is > 100 µM (inactive).
The same measure, in the same setting: for `COc1cccc2c(=O)oc(-c3ccc(C(C)(C)C)cc3)nc12` the value was 44 µM (inactive).
The same measure, in the same setting: for `c1ccc2c(c1)Sc1nccc3ccnc-2c13` the value was 77.1 µM (inactive); for `CCc1c2c([nH]c(=S)c1C#N)CCC2`, > 100 µM (inactive); for `CCN(CC)CCOc1ccccc1/C=C/c1noc2ccccc12`, 16.3 µM (inactive).
`CCOc1ccc2c(c1)[n+]([O-])c(C(N)=O)c(N)[n+]2[O-]`: the GI50 in the assay with M19-MEL, in the assay on DLD-1, in the assay on SNB-78, in the assay with XF498, in the assay with DMS-114 and in the assay with HOP-18 was > 100 µM (inactive) in each case. Moreover, the GI50 with DMS-273 was > 100 µM (inactive).
Consider `CCN1CN(c2ccccc2)C2(CCN(CC3COc4ccccc4O3)CC2)C1=O` (stereo unspecified), for which, in the assay with BT-549, the GI50 was 16 µM (inactive).
The same measure, in the same setting: for `Cc1ccc(S(=NS(=O)(=O)c2ccc(C)cc2)c2ccc(C)cc2)cc1` the value was > 100 µM (inactive).
Same read-out and setting: the result for `C=C(CC[C@@H](C)[C@H]1CC[C@H]2[C@@H]3C[C@@H](O)[C@H]4C[C@@H](O)CC[C@]4(CO)[C@H]3CC[C@]12C)C(C)C` reads 8.09 µM (inactive); that for `C/C=C\C(CC(=O)NCCc1c[nH]c2ccccc12)CC(=O)OC` (stereo unspecified), > 100 µM (inactive).
The same measure, in the same setting: the result for `C[N+](C)(C)c1ncnc2c1ncn2C1CCCO1` (stereo unspecified) reads > 100 µM (inactive); that for `COc1ccc(/C=c2/sc3n(c2=O)C(c2ccccc2)C2(O)CCCCC2N=3)cc1` (stereo unspecified), > 12.5 µM (inactive).
`O=C1C(N2C(=O)c3ccccc3C2=O)CN1C(COCc1ccccc1)c1ccc(OCc2ccccc2)cc1` (stereo unspecified): the GI50 with M19-MEL, with DLD-1, in the assay with SNB-78, in the assay on XF498, in the assay on DMS-114 and with DMS-273 was > 100 µM (inactive) each time.
Take `Cc1ccc2c(c1)C1(C)OC(C=CC1=O)O2` (stereo unspecified): the GI50 in the assay with BT-549 was 0.389 µM (active).
Consider `Cc1ccccc1C(C#N)/C(=N/NC(=O)c1cc2ccccc2cc1O)C(=O)Nc1cccc(Cl)c1` (stereo unspecified), for which the GI50 with M19-MEL was 17.3 µM (inactive); in the assay with DLD-1 it was 18.4 µM (inactive); in the assay with SNB-78 it was 21.8 µM (inactive); in the assay with XF498, 14.8 µM (inactive); in the assay with DMS-114 it was 17.2 µM (inactive); in the assay with HOP-18 it was 5.37 µM (inactive). For the same compound, the GI50 in the assay on DMS-273 was 6.75 µM (inactive).
For `CC(C)(C)OC(=O)NCCCCC(N)C(N)=O` (stereo unspecified), the GI50 in the assay on BT-549 is > 100 µM (inactive).
On the same count and under the same terms, for `Cc1c(-c2ccccc2)nn2cc(-c3ccccc3)nnc12` the value was 25.2 µM (inactive); for `Clc1nc(Cl)c(-c2ccccc2)c(Cl)n1`, 2.61 µM (inactive); for `COC(=O)C1=C(CCCCO[Si](C)(C)C(C)(C)C)NC(=O)N2[C@@H](CCOCc3ccccc3)CC[C@H]12`, 20.5 µM (inactive).
`CCOC(=O)[C@H]1Nc2ccc(O)cc2C2c3ccccc3CC21` (stereo partly specified): the GI50 was 55.1 µM (inactive) in the assay with M19-MEL; > 100 µM (inactive) in the assay on RXF 631; 70.8 µM (inactive) with DLD-1; > 100 µM (inactive) in the assay with SNB-78; 56.2 µM (inactive) in the assay with DMS-114; > 100 µM (inactive) with HOP-18. The GI50 with DMS-273 is 59.2 µM (inactive).
As to `CN(C)Cc1c(O)ccc2c1c1c(n2C)C(=O)c2ccccc2C1=O`, the GI50 in the assay on BT-549 was 11.5 µM (inactive).
Take `C[n+]1c2ccccc2c(CNCC(=O)O)c2ccccc21`: the GI50 is 4.43 µM (inactive) with M19-MEL; 0.659 µM (active) with DLD-1; 11.3 µM (inactive) in the assay on SNB-78; 2.14 µM (inactive) in the assay with XF498; 2.13 µM (inactive) with DMS-114; 10.3 µM (inactive) in the assay with HOP-18. Besides, the GI50 in the assay with DMS-273 is 0.646 µM (active).
As to `Nc1nc2c(ncn2CCCC(c2ccccc2)P(=O)(O)O)c(=O)[nH]1` (stereo unspecified), the GI50 in the assay on M19-MEL is > 100 µM (inactive); in the assay on DLD-1, > 100 µM (inactive); in the assay on SNB-78, > 100 µM (inactive); with DMS-114, > 100 µM (inactive); in the assay on HOP-18, 62.4 µM (inactive); in the assay with DMS-273, > 100 µM (inactive).
For `O=c1[nH]cc(F)c(=O)n1C1OC(CO)C(O)C1O` (stereo unspecified), the GI50 in the assay with DLD-1, in the assay with SNB-78, in the assay on XF498, in the assay with DMS-114, in the assay on HOP-18 and in the assay on DMS-273 was > 100 µM (inactive) throughout.
`COC(=O)[C@]1(c2cc3ccccc3[nH]2)CC2CNC1C1OC(C)(C)OC21` (stereo partly specified): the GI50 in the assay with BT-549 is > 100 µM (inactive).
In the case of `Cc1ccc(S(=O)(=O)C2CC2(Cl)Cl)cc1` (stereo unspecified), the GI50 with M19-MEL was 25.1 µM (inactive); in the assay with RXF 631, 20.9 µM (inactive); in the assay with DLD-1, 24.2 µM (inactive); in the assay on XF498, 21.2 µM (inactive); in the assay on DMS-114 it was 19.7 µM (inactive); with DMS-273, 32.5 µM (inactive).
As to `O=c1c(-c2ccccc2)c2oc(c1-c1ccccc1)CSCc1cccc(c1)CSC2`, the GI50 is 45.9 µM (inactive) with M19-MEL; 54.7 µM (inactive) in the assay with DLD-1; 82.8 µM (inactive) in the assay with SNB-78; 36.9 µM (inactive) in the assay with DMS-114; 27.8 µM (inactive) with HOP-18; 39.5 µM (inactive) in the assay on DMS-273.
For `COc1cc(C2S/C(=C/c3ccccc3)C(=O)N2c2cccc(Cl)c2)cc(OC)c1OC` (stereo unspecified), the GI50 with BT-549 was 28.6 µM (inactive).
The same measure, in the same setting: for `Cc1ncc([N+](=O)[O-])n1CCNC(=O)Cn1c([N+](=O)[O-])cnc1C` the value was > 100 µM (inactive).
Take `COc1cccc(C2C(C(=O)Nc3cc(=O)n(C)c(=O)n3C)=C(C)NC(C)=C2C(=O)Nc2cc(=O)n(C)c(=O)n2C)c1O`: the GI50 in the assay with M19-MEL, in the assay on RXF 631, in the assay with DLD-1, with SNB-78, in the assay with XF498 and with DMS-114 was > 100 µM (inactive) in each case.
Consider `CC(=O)Oc1ccc2oc(=O)cc(C)c2c1`, for which the GI50 in the assay with BT-549 is > 100 µM (inactive).
Take `O=C1c2ccccc2CC12CCC1(CC2)OCCO1`: the GI50 with BT-549 is > 100 µM (inactive).
On the same count and under the same terms, for `CCOC(=O)C(C)c1nc2cc3cccnc3c(Cl)c2[nH]c1=O` (stereo unspecified) the value was > 100 µM (inactive); for `C=CCN(c1cc(OC)c(NC(C)=O)cc1[N+](=O)[O-])S(C)(=O)=O`, > 100 µM (inactive); for `O=C1CN(c2ccccc2)C(=O)CN1NCNN1CC(=O)N(c2ccccc2)CC1=O`, > 100 µM (inactive).
Still for that read-out and setting: the result for `N#CCC1(c2ccc(Cl)cc2)NC(=O)c2ccccc21` (stereo unspecified) reads > 100 µM (inactive); that for `COc1ccc2c(c1)Cc1cc(/N=[N+](\[O-])c3ccc4c(c3)Cc3cc(OC)ccc3-4)ccc1-2`, 76.7 µM (inactive); that for `COc1cccc(/C=C/c2cnc3ccccc3n2)c1OC`, 17.4 µM (inactive).
On the same count and under the same terms, for `CC(C)/C(Cl)=N/OC(=O)Nc1cccc(C(F)(F)F)c1` the value was 3.64 µM (inactive).
On to `COc1nc2c(c(O)c(C)c(=O)n2OC2OCC(OC(C)=O)C(OC(C)=O)C2OC(C)=O)c(=O)n1C` (stereo unspecified), for which the GI50 in the assay with M19-MEL, in the assay with DLD-1, in the assay on SNB-78, in the assay with XF498, with DMS-114 and with DMS-273 was > 100 µM (inactive) in each case.
On to `O=c1c(Cc2ccc(Cl)cc2)nnc2sc(-c3ccc(-c4ccc(F)c(Cl)c4)o3)nn12`, for which, in the assay with BT-549, the GI50 is 78.2 µM (inactive).
